Drawing on PMC6268315, “Investigating the Spectrum of Biological Activity of Substituted Quinoline-2-Carboxamides and Their Isosteres ^†” (Molecules, 2012), this text covers IC50 and melting point for 49 compounds.

Where “and” joins values, the source holds several entries; their conditions need not be identical. Equal entries are not always repeated.

The test system of data set [1] is photosynthetic electron transport (PET) in spinach chloroplasts. The data set can be described thus: Inhibition of photosynthetic electron transport (PET) in spinach chloroplasts. Particulars: photoreduction of DCPIP, pH 7.2. It is filed as biochemical, Spinacia oleracea L. On the procedure: Chloroplasts were prepared from spinach (Spinacia oleracea L.) according to Masarovicova and Kralova. The inhibition of photosynthetic electron transport (PET) in spinach chloroplasts was determined spectrophotometrically (Genesys 6, Thermo Scientific, USA), using an artificial electron acceptor 2,6-dichlorophenol-indophenol (DCIPP) according to Kralova et al., and the rate of photosynthetic electron transport was monitored as a photoreduction of DCPIP. The measurements were carried out in phosphate buffer (0.02 mol/L, pH 7.2) containing sucrose (0.4 mol/L), MgCl2 (0.005 mol/L) and NaCl (0.015 mol/L). The chlorophyll content was 30 mg/L in these experiments and the samples were irradiated (~100 W/m^2 with 10 cm distance) with a halogen lamp (250 W) using a 4 cm water filter to prevent warming of the samples (suspension temperature 22 °C). The studied compounds were dissolved in DMSO due to their limited water solubility. […] The inhibitory efficiency of the studied compounds was expressed by IC50 values, i.e., by molar concentration of the compounds causing 50% decrease in the oxygen evolution rate relative to the untreated control.

For `CC(C)NC(=O)c1ccc2ccccc2c1` [Compound 20, N-Isopropyl-2-naphthamide], the melting point lay in the range of 174 to 176 °C. The compound also yielded a 50% inhibitory concentration (IC50) in data set [1] of 353 µM. `O=C(Nc1ccccc1Cl)c1ccc2ccccc2c1` [Compound 35a, N-(2-Chlorophenyl)-2-naphthamide] displayed a melting point of 116 °C. For `O=C(Nc1cccc([N+](=O)[O-])c1)c1ccc2ccccc2c1` [Compound 38b, N-(3-Nitrophenyl)-2-naphthamide], the melting point amounted to 177 °C. This compound also gave an IC50 in data set [1] of 633 µM. Compound `O=C(c1ccc2ccccc2c1)N1CCCCC1` [Compound 23, 1-(2-Naphthoyl)piperidine] came in with a melting point of 97 to 98 °C. Compound `O=C(Nc1cccc(Br)c1)c1ccc2ccccc2c1` [Compound 36b, N-(3-Bromophenyl)-2-naphthamide] displayed a melting point of 193 °C. The 50% inhibitory concentration (IC50) in data set [1] worked out at 103 µM. For `O=C(Nc1cccc(F)c1)c1ccc2ccccc2c1` [Compound 34b, N-(3-Fluorophenyl)-2-naphthamide], the melting point stood at 167 °C. The compound `O=C(NC1CCCCCC1)c1ccc2ccccc2c1` [Compound 26, N-Cycloheptyl-2-naphthamide] returned a melting point of 157 to 158 °C. The compound further gave a concentration for half-maximal inhibition (IC50) in data set [1] of 216 µM. In turn, `COc1cccc(NC(=O)c2ccc3ccccc3c2)c1` [Compound 32b, N-(3-Methoxyphenyl)-2-naphthamide] registered a melting point of 142 °C. Besides, the IC50 in data set [1] was 306 µM. In turn, `O=C(Nc1ccc(O)cc1)c1ccc2ccccc2n1` [Compound 12c, N-(4-Hydroxyphenyl)quinoline-2-carboxamide] came in with a melting point of 230 to 231 °C. Take `O=C(NC1CCCCCCC1)c1ccc2ccccc2c1` [Compound 27, N-Cyclooctyl-2-naphthamide]: the melting point is 145 to 146 °C. This compound displayed an IC50 in data set [1] of 688 µM.

In turn, `O=C(Nc1ccccc1[N+](=O)[O-])c1ccc2ccccc2c1` [Compound 38a, N-(2-Nitrophenyl)-2-naphthamide] yielded a melting point of 136 °C.

Take `O=C(Nc1ccc(C(F)(F)F)cc1)c1ccc2ccccc2n1` [Compound 18c, N-(4-Trifluoromethylphenyl)quinoline-2-carboxamide]: the melting point lay in the range of 147 to 148 °C. `O=C(Nc1ccc(C(F)(F)F)cc1)c1ccc2ccccc2c1` [Compound 37c, N-(4-Trifluoromethylphenyl)-2-naphthamide] came in with a melting point of 224 °C.

As to `O=C(Nc1cccc(Cl)c1)c1ccc2ccccc2n1` [Compound 16b, N-(3-Chlorophenyl)quinoline-2-carboxamide], the melting point lay in the range of 127 to 128 °C. In addition, the concentration for half-maximal inhibition (IC50) in data set [1] is 91.9 µM. `O=C(Nc1ccc([N+](=O)[O-])cc1)c1ccc2ccccc2c1` [Compound 38c, N-(4-Nitrophenyl)-2-naphthamide] came in with a melting point of 200 °C. Also, the half-maximal inhibitory concentration (IC50) in data set [1] turned out to be 260 µM.

As to `O=C(Nc1ccc(Br)cc1)c1ccc2ccccc2n1` [Compound 17c, N-(4-Bromophenyl)quinoline-2-carboxamide], the melting point lay within 157 to 158 °C. In data set [1], this compound showed a half-inhibitory concentration (IC50) of 308 µM.

For `O=C(c1ccc2ccccc2n1)N1CCCCC1` [Compound 4, 2-(Piperidin-1-ylcarbonyl)quinoline], the melting point fell in the range of 83 to 84 °C. Consider `Cc1cccc(NC(=O)c2ccc3ccccc3c2)c1` [Compound 33b, N-(3-Methylphenyl)-2-naphthamide], for which the melting point is 160 °C.

`O=C(Nc1cccc(F)c1)c1ccc2ccccc2n1` [Compound 15b, N-(3-Fluorophenyl)quinoline-2-carboxamide] had a melting point of 126 to 127 °C. In data set [1], this compound showed an IC50 of 86.9 µM.

On to `O=C(Nc1cccc(O)c1)c1ccc2ccccc2n1` [Compound 12b, N-(3-Hydroxyphenyl)quinoline-2-carboxamide], for which the melting point was 154 to 155 °C. `O=C(Nc1ccc([N+](=O)[O-])cc1)c1ccc2ccccc2n1` [Compound 19c, N-(4-Nitrophenyl)quinoline-2-carboxamide] registered a melting point of 227 to 228 °C.

As to `Cc1ccc(NC(=O)c2ccc3ccccc3c2)cc1` [Compound 33c, N-(4-Methylphenyl)-2-naphthamide], the melting point is 195 °C. `CCCCCCCCCCCCNC(=O)c1ccc2ccccc2c1` [Compound 21, N-Dodecyl-2-naphthamide]: the melting point lay within 102 to 103 °C. Further, in data set [1], the midpoint of inhibition, the IC50, lay at 845 µM. In the same order, the values of `O=C(Nc1ccccc1O)c1ccc2ccccc2n1` [Compound 12a, N-(2-Hydroxyphenyl)quinoline-2-carboxamide] are 219 to 220 °C and 16.3 µM.

In turn, `COc1ccc(NC(=O)c2ccc3ccccc3n2)cc1` [Compound 13c, N-(4-Methoxyphenyl)quinoline-2-carboxamide] gave a melting point of 130 to 131 °C. On to `CN(C)C(=O)Nc1ccc(Cl)c(Cl)c1` [DCMU, 3-(3,4-dichlorophenyl)-1,1-dimethylurea, reference compound], for which the 50% inhibitory concentration (IC50) in data set [1] is ~1.9 µM and 1.9 µM. Compound `O=C(NC1CCCC1)c1ccc2ccccc2c1` [Compound 24, N-Cyclopentyl-2-naphthamide] showed a melting point of 190 to 191 °C.

Consider `O=C(NCc1ccccc1)c1ccc2ccccc2n1` [Compound 10, N-Benzylquinoline-2-carboxamide], for which the melting point lay within 123 to 124 °C. Besides, in data set [1], the midpoint of inhibition, the IC50, lay at 59.4 µM. `O=C(Nc1ccc(Cl)cc1)c1ccc2ccccc2n1` [Compound 16c, N-(4-Chlorophenyl)quinoline-2-carboxamide] yielded a melting point of 134 to 135 °C. In data set [1], the IC50 came out at 148 µM. `O=C(Nc1cccc(C(F)(F)F)c1)c1ccc2ccccc2n1` [Compound 18b, N-(3-Trifluoromethylphenyl)quinoline-2-carboxamide] gave a melting point of 121 to 122 °C. This compound registered an IC50 in data set [1] of 330 µM. As for `Cc1ccccc1NC(=O)c1ccc2ccccc2c1` [Compound 33a, N-(2-Methylphenyl)-2-naphthamide], the melting point is 146 °C. For `O=C(Nc1ccccc1Cl)c1ccc2ccccc2n1` [Compound 16a, N-(2-Chlorophenyl)quinoline-2-carboxamide], the melting point lay in the range of 130 to 131 °C. The compound further had an IC50 in data set [1] of 56.3 µM. The compound `Cc1ccc(NC(=O)c2ccc3ccccc3n2)cc1` [Compound 14c, N-(4-Methylphenyl)quinoline-2-carboxamide] had a melting point of 107 to 108 °C.

On to `O=C(Nc1ccccc1C(F)(F)F)c1ccc2ccccc2n1` [Compound 18a, N-(2-Trifluoromethylphenyl)quinoline-2-carboxamide], for which the melting point fell in the range of 120 to 121 °C. This compound had a 50% inhibitory concentration (IC50) in data set [1] of 109 µM. `O=C(Nc1ccccc1Br)c1ccc2ccccc2n1` [Compound 17a, N-(2-Bromophenyl)quinoline-2-carboxamide] registered a melting point of 134 to 135 °C. This compound yielded an IC50 in data set [1] of 92.2 µM.

Take `O=C(Nc1ccccc1)c1ccc2ccccc2c1` [Compound 28, N-Phenyl-2-naphthamide]: the IC50 in data set [1] was determined as 20.7 µM. Turning to `COc1cccc(NC(=O)c2ccc3ccccc3n2)c1` [Compound 13b, N-(3-Methoxyphenyl)quinoline-2-carboxamide], the melting point was 117 to 118 °C. Compound `O=C(Nc1ccc(Br)cc1)c1ccc2ccccc2c1` [Compound 36c, N-(4-Bromophenyl)-2-naphthamide] showed a melting point of 231 °C. Compound `O=C(Nc1ccc(F)cc1)c1ccc2ccccc2c1` [Compound 34c, N-(4-Fluorophenyl)-2-naphthamide] displayed a melting point of 191 °C.

`O=C(Nc1cccc(C(F)(F)F)c1)c1ccc2ccccc2c1` [Compound 37b, N-(3-Trifluoromethylphenyl)-2-naphthamide] came in with a melting point of 150 °C. Also, it took 309 µM to reach half-maximal inhibition in data set [1] (IC50). In turn, `O=C(NCCc1ccccc1)c1ccc2ccccc2c1` [Compound 30, N-(2-Phenylethyl)-2-naphthamide] registered a melting point of 133 to 134 °C. The same measure, in the same setting: the figure for `O=C(Nc1ccccc1F)c1ccc2ccccc2c1` [Compound 34a, N-(2-Fluorophenyl)-2-naphthamide] is 122 °C; for `O=C(Nc1cccc([N+](=O)[O-])c1)c1ccc2ccccc2n1` [Compound 19b, N-(3-Nitrophenyl)quinoline-2-carboxamide] it is 189 to 190 °C.

`O=C(Nc1ccccc1Br)c1ccc2ccccc2c1` [Compound 36a, N-(2-Bromophenyl)-2-naphthamide]: the melting point turned out to be 123 °C. Turning to `O=C(Nc1ccccc1[N+](=O)[O-])c1ccc2ccccc2n1` [Compound 19a, N-(2-Nitrophenyl)quinoline-2-carboxamide], the melting point was 181 to 182 °C.

`O=C(Nc1ccc(Cl)cc1)c1ccc2ccccc2c1` [Compound 35c, N-(4-Chlorophenyl)-2-naphthamide] displayed a melting point of 218 °C.

`COc1ccccc1NC(=O)c1ccc2ccccc2n1` [Compound 13a, N-(2-Methoxyphenyl)quinoline-2-carboxamide] registered a melting point of 111 to 112 °C. Regarding `O=C(Nc1cccc(O)c1)c1ccc2ccccc2c1` [Compound 31b, N-(3-Hydroxyphenyl)-2-naphthamide], the melting point is 194 °C.

`O=C(NC1CCCCC1)c1ccc2ccccc2c1` [Compound 25, N-Cyclohexyl-2-naphthamide] registered a melting point of 184 to 185 °C.

The IC50 is the point on the concentration scale where inhibition reaches its midpoint. Low values mean greater potency, high ones weaker potency. One may read the melting point as the temperature of the solid-liquid transition.
